Measurements from ChEMBL document CHEMBL1201862, “PubChem BioAssay data set” (2004).
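A five-concentration, 48-hour dose response in 96-well plates underlies each endpoint, interpolated linearly between surrounding concentrations. At the GI50, growth is halved.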 The source made the active and inactive calls. Cut-off read from the data, not from the text of the source: active = GI50 up to about 1.1 µM and inactive = higher.

Legend:
Test in all cases: growth of human tumour cells (NCI), 48 h
A498 = system: A498
A549 = system: A549
CAKI-1 = system: CAKI-1
CCRF-CEM = system: CCRF-CEM
COLO 205 = system: COLO 205
DLD-1 = system: DLD-1
DMS-114 = system: DMS-114
DMS-273 = system: DMS-273
EKVX = system: EKVX
HCC 2998 = system: HCC 2998
HCT-116 = system: HCT-116
HCT-15 = system: HCT-15
HL-60 = system: HL-60
HOP-18 = system: HOP-18
HOP-62 = system: HOP-62
HOP-92 = system: HOP-92
HT-29 = system: HT-29
IGROV-1 = system: IGROV-1
K562 = system: K562
KM-20L2 = system: KM-20L2
KM12 = system: KM12
LOX IMVI = system: LOX IMVI
M19-MEL = system: M19-MEL
MCF7 = system: MCF7
MOLT-4 = system: MOLT-4
Malme-3M = system: Malme-3M
NCI-H226 = system: NCI-H226
NCI-H23 = system: NCI-H23
NCI-H460 = system: NCI-H460
NCI-H522 = system: NCI-H522
NCI/ADR-RES = system: NCI/ADR-RES
OVCAR-3 = system: OVCAR-3
OVCAR-4 = system: OVCAR-4
OVCAR-5 = system: OVCAR-5
OVCAR-8 = system: OVCAR-8
RPMI-8226 = system: RPMI-8226
RXF 393 = system: RXF 393
SF-268 = system: SF-268
SF-295 = system: SF-295
SF-539 = system: SF-539
SK-MEL-28 = system: SK-MEL-28
SK-MEL-2 = system: SK-MEL-2
SK-MEL-5 = system: SK-MEL-5
SK-OV-3 = system: SK-OV-3
SN12C = system: SN12C
SNB-19 = system: SNB-19
SNB-75 = system: SNB-75
SNB-78 = system: SNB-78
SW-620 = system: SW-620
U-251 = system: U-251
UACC-257 = system: UACC-257
UACC-62 = system: UACC-62
UO-31 = system: UO-31
XF498 = system: XF498
786-0 = system: 786-0
ACHN = system: ACHN
TK-10 = system: TK-10
LXFL 529 = system: LXFL 529
M14 = system: M14
BT-549 = system: BT-549
DU-145 = system: DU-145
Hs-578T = system: Hs-578T
MDA-MB-231 = system: MDA-MB-231
MDA-MB-435 = system: MDA-MB-435
MDA-N = system: MDA-N
PC-3 = system: PC-3
SR = system: SR
T47D = system: T47D

Measured: GI50

O=C(NC(Cc1ccc(Br)cc1)C(=O)O)c1ccc(I)cc1 (stereo unspecified)
inactive: A498 > 100 µM | A549 > 100 µM | CAKI-1 > 100 µM | CCRF-CEM > 72.9 µM | COLO 205 > 100 µM | DLD-1 > 100 µM | DMS-114 70.5 µM | DMS-273 > 100 µM | EKVX > 52 µM | HCC 2998 > 47.4 µM | HCT-116 > 100 µM | HL-60 > 100 µM | HOP-18 > 100 µM | HOP-62 > 100 µM | HOP-92 65.3 µM | HT-29 > 100 µM | IGROV-1 > 100 µM | K562 > 100 µM | KM-20L2 > 100 µM | KM12 > 100 µM | LOX IMVI > 100 µM | M19-MEL > 100 µM | MCF7 > 100 µM | MOLT-4 > 69.5 µM | Malme-3M 83.4 µM | NCI-H226 > 100 µM | NCI-H23 > 100 µM | NCI-H460 > 100 µM | NCI-H522 > 82.6 µM | NCI/ADR-RES > 100 µM | OVCAR-3 > 69.7 µM | OVCAR-4 75.3 µM | OVCAR-5 > 100 µM | OVCAR-8 > 100 µM | RPMI-8226 > 68.9 µM | RXF 393 > 100 µM | SF-268 > 100 µM | SF-295 > 100 µM | SF-539 > 100 µM | SK-MEL-28 > 100 µM | SK-MEL-2 > 100 µM | SK-MEL-5 > 100 µM | SK-OV-3 > 100 µM | SN12C > 100 µM | SNB-19 > 81.3 µM | SNB-75 > 95.7 µM | SNB-78 > 100 µM | SW-620 > 100 µM | U-251 > 95.3 µM | UACC-257 > 100 µM | UACC-62 71.9 µM | UO-31 > 100 µM | XF498 > 100 µM
> 100 µM: HCT-15

S=P1(Sc2ccccc2)Oc2ccc3ccccc3c2-c2c(ccc3ccccc23)O1
inactive: A498 > 84.7 µM | A549 > 100 µM | CAKI-1 > 83.9 µM | CCRF-CEM > 100 µM | COLO 205 > 100 µM | DLD-1 > 100 µM | DMS-114 > 58.6 µM | DMS-273 > 100 µM | EKVX > 100 µM | HCC 2998 > 100 µM | HCT-116 > 100 µM | HL-60 > 77.4 µM | HOP-18 > 92.5 µM | HOP-62 > 100 µM | HOP-92 > 100 µM | HT-29 51.5 µM | IGROV-1 > 100 µM | K562 80.7 µM | KM-20L2 67.1 µM | KM12 > 100 µM | LOX IMVI > 79.6 µM | M19-MEL > 100 µM | MCF7 71.8 µM | MOLT-4 > 82.6 µM | Malme-3M > 100 µM | NCI-H226 > 100 µM | NCI-H23 > 100 µM | NCI-H460 > 100 µM | NCI-H522 49.9 µM | NCI/ADR-RES > 100 µM | OVCAR-3 70 µM | OVCAR-4 > 100 µM | OVCAR-5 > 100 µM | OVCAR-8 > 100 µM | RPMI-8226 > 100 µM | RXF 393 > 83 µM | SF-268 > 100 µM | SF-295 > 100 µM | SF-539 > 100 µM | SK-MEL-28 > 78.5 µM | SK-MEL-2 > 100 µM | SK-MEL-5 > 100 µM | SK-OV-3 > 100 µM | SN12C > 100 µM | SNB-19 > 100 µM | SNB-75 > 100 µM | SNB-78 > 100 µM | SW-620 > 100 µM | U-251 > 95.5 µM | UACC-257 > 100 µM | UACC-62 > 100 µM | UO-31 > 100 µM | XF498 > 100 µM
> 80.4 µM: HCT-15

COc1ccccc1/C=C/C(=O)c1sc(-c2cccnc2)nc1C
inactive: 786-0 > 100 µM | A498 > 100 µM | A549 > 100 µM | ACHN > 100 µM | CAKI-1 > 100 µM | CCRF-CEM 84.3 µM | COLO 205 > 100 µM | DLD-1 > 100 µM | DMS-114 > 100 µM | DMS-273 > 100 µM | EKVX > 100 µM | HCC 2998 > 100 µM | HL-60 > 100 µM | HOP-18 76.6 µM | HOP-62 > 100 µM | HOP-92 > 100 µM | HT-29 > 100 µM | IGROV-1 > 100 µM | K562 > 100 µM | KM-20L2 > 100 µM | KM12 65.2 µM | LOX IMVI > 100 µM | M19-MEL > 100 µM | MOLT-4 61.7 µM | Malme-3M > 100 µM | NCI-H226 > 100 µM | NCI-H23 > 100 µM | NCI-H460 > 100 µM | NCI-H522 > 100 µM | OVCAR-3 > 100 µM | OVCAR-5 > 100 µM | OVCAR-8 > 100 µM | RPMI-8226 26.3 µM | RXF 393 27.9 µM | SF-268 > 100 µM | SF-295 46.5 µM | SF-539 > 100 µM | SK-MEL-28 > 100 µM | SK-MEL-2 > 100 µM | SK-MEL-5 47.3 µM | SK-OV-3 > 100 µM | SN12C > 100 µM | SNB-75 22.8 µM | SNB-78 > 100 µM | SW-620 > 100 µM | TK-10 > 100 µM | U-251 > 100 µM | UACC-257 > 100 µM | UACC-62 > 100 µM | UO-31 > 100 µM
> 100 µM: HCT-15

NC(=O)CCC(Nc1c2ccccc2[n+]([O-])c2ccccc12)C(=O)O (stereo unspecified)
46.7 µM: HCT-15
inactive: 786-0 > 100 µM | A498 > 100 µM | A549 > 100 µM | ACHN 36.6 µM | CCRF-CEM 42.5 µM | COLO 205 49.1 µM | DLD-1 27.8 µM | DMS-114 37.1 µM | DMS-273 65 µM | EKVX > 100 µM | HCC 2998 > 100 µM | HCT-116 38.3 µM | HL-60 11.1 µM | HOP-18 16 µM | HOP-62 > 100 µM | IGROV-1 > 100 µM | K562 37.8 µM | KM-20L2 > 100 µM | KM12 > 100 µM | LOX IMVI 49 µM | LXFL 529 31 µM | M14 > 100 µM | M19-MEL 77.3 µM | MOLT-4 55.1 µM | Malme-3M 32.7 µM | NCI-H226 64.6 µM | NCI-H23 35.6 µM | NCI-H460 80 µM | NCI-H522 29.9 µM | OVCAR-3 60.1 µM | OVCAR-4 84.1 µM | OVCAR-5 > 100 µM | OVCAR-8 63 µM | RPMI-8226 18.6 µM | SF-268 64.7 µM | SF-295 > 100 µM | SK-MEL-28 26.4 µM | SK-MEL-2 > 100 µM | SK-MEL-5 32 µM | SK-OV-3 > 100 µM | SN12C 71.8 µM | SNB-19 77.1 µM | SNB-75 26.7 µM | SNB-78 > 100 µM | SW-620 > 100 µM | TK-10 > 100 µM | U-251 > 100 µM | UACC-62 51.3 µM | UO-31 58.3 µM

C=C1C(O)C2(O)OCC34C(CC5C(C)=CC(=O)C(O)C5(C)C23)OC(=O)C(OC(=O)C/C=C(\C)CCCCC)C14 (stereo unspecified)
active: 786-0 0.00103 µM | A498 0.0148 µM | A549 0.017 µM | ACHN < 0.001 µM | BT-549 < 0.001 µM | CAKI-1 0.0427 µM | CCRF-CEM 0.0125 µM | COLO 205 0.0154 µM | DLD-1 0.0146 µM | DMS-114 0.0125 µM | DU-145 < 0.001 µM | EKVX 0.0198 µM | HCC 2998 0.0136 µM | HCT-116 0.0125 µM | HL-60 0.0125 µM | HOP-18 0.0343 µM | HOP-62 0.0148 µM | HOP-92 0.0147 µM | HT-29 0.0141 µM | Hs-578T < 0.001 µM | IGROV-1 0.0133 µM | K562 0.0125 µM | KM-20L2 0.0149 µM | KM12 0.0129 µM | M14 < 0.001 µM | M19-MEL 0.0136 µM | MCF7 0.0125 µM | MDA-MB-231 0.00315 µM | MDA-MB-435 < 0.001 µM | MDA-N < 0.001 µM | MOLT-4 0.0125 µM | NCI-H226 0.0144 µM | NCI-H23 0.0147 µM | NCI-H460 0.0125 µM | NCI-H522 0.0125 µM | NCI/ADR-RES 0.624 µM | OVCAR-4 0.0125 µM | OVCAR-5 0.0231 µM | OVCAR-8 0.0125 µM | PC-3 < 0.001 µM | RPMI-8226 0.014 µM | RXF 393 0.0152 µM | SF-268 0.0152 µM | SF-295 0.0125 µM | SF-539 0.0153 µM | SK-MEL-28 0.0128 µM | SK-MEL-2 0.0251 µM | SK-OV-3 0.0133 µM | SN12C 0.0199 µM | SNB-19 0.0146 µM | SNB-75 0.0153 µM | SNB-78 0.0145 µM | SR < 0.01 µM | SW-620 0.0153 µM | T47D < 0.001 µM | TK-10 0.00177 µM | U-251 0.0125 µM | UACC-257 0.0125 µM | UACC-62 0.0147 µM | UO-31 0.0787 µM | XF498 0.0153 µM
0.0316 µM: HCT-15
